In patent US20130137131A1, “System and Method of Producing Volatile Organic Compounds from Fungi” (priority 2010, published 2013):

Test system: Hypoxylon sp. CI-4
Test: Response of Hypoxylon sp. CI-4 to epigenetic modifying agents
Assay type: cell-based
Conditions: lower concentrations seemingly ineffective
From the text: The wild-type Hypoxylon sp. had previously been found as an endophyte in Persea indica growing in the Laurisilva, Tenerife, Spain (Tomsheck et al., 2010, Microb Ecol 60:903-914). The fungus, growing on potato dextrose agar (PDA), was hyphal tipped in order to obtain a genetically pure strain, CI-4. This strain was used for epigenetic modulation using a histone deacetylase inhibitor, suberoylanilide hydroxamic acid (SAHA) and a DNA methyltransferase inhibitor, 5-azacytidine (AZA) as the modulating compounds (Cichewicz, 2010, Nat Prod Rep 27:11-22). Stock solutions of these compounds were prepared in DMSO and sterile deionized water, respectively. The fungus was grown on PDA supplemented with different concentrations of the epigenetic modulators (1, 5, 10, 20, 30, 50 and 100 μM) for 15 days. The numerous variants resulting from concentrations of modulators producing the most notable cultural, biological and VOC changes were selected for future study. The strains studied here were CI-4 (wild-type), CI4-B (strain selected after a 15 day exposure of CI-4 to 50 μM SAHA, hyphal tipped, transferred to PDA and studied without subsequent exposure to SAHA), CI4-SAHA (strain CI-4 exposed to 50 μM SAHA in all studies), and CI4-AZA (strain CI-4 exposed to 100 μM AZA in all studies).
Successful attempts were made to acquire a response of Hypoxylon sp. […]

Structure (SMILES) | Changes in the morphology and bioactivities of the cultures (growth of strain CI-4 on PD broth with 100 μM AZA) | Changes in the morphology and bioactivities of the cultures (growth of strain CI-4 on PD broth with 50 μM SAHA)
Nc1ncn([C@@H]2O[C@H](CO)[C@@H](O)[C@H]2O)c(=O)n1 [AZA, 4-amino-1-(β-D-ribofuranosyl)-1,3,5-triazin-2(1H)-one] | the most striking changes in the morphology and bioactivities of the cultures | –
O=C(CCCCCCC(=O)Nc1ccccc1)NO [SAHA, N-hydroxy-N′-phenyl-octanediamide] | – | the most striking changes in the morphology and bioactivities of the cultures
